Source: patent publication US20220119354A1, “DIAMINO-SUBSTITUTED PYRIDINES AND PYRIMIDINES AS HERBICIDES” (FMC Corporation, priority 2019, published 2022)

Experiments:
Format in all cases: in vivo
rice (Oryza sativa) = assay: Test B flooded paddy test, rice; details: Flood, 250 g ai/ha, applied to paddy water, 2-leaf stage, visual evaluation after 13 to 15 d
Procedure, shortened: (§1)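 Plants grown to 2-leaf stage. Compounds applied directly into paddy water flooded 3 cm above soil, with that depth kept throughout. After 13–15 d in greenhouse, visual rating versus controls on a 0–100 scale (0 no effect, 100 complete control).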

kochia (Kochia scoparia) [1] = assay: Test A postemergence, kochia; details: 0 to 100 scale
Procedure, shortened: (§2)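 Post: seedlings 2–10 cm, 1–2 leaves, foliar spray. Pre: soil spray after sowing in loam/sand blend. Both formulated in non-phytotoxic solvent with surfactant; injury scored visually 0–100 after ~10 d.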

[2] = system: foxtail, giant (Setaria faberii); assay: Test A postemergence, giant foxtail; details: 0 to 100 scale
Procedure, shortened: as §2

[3] = system: wheat (Triticum aestivum); assay: Test A postemergence, wheat; details: 0 to 100 scale
Procedure, shortened: as §2

[4] = system: ryegrass, Italian (Lolium multiflorum); assay: Test A postemergence, Italian ryegrass; details: 0 to 100 scale
Procedure, shortened: as §2

[5] = system: ragweed (common ragweed, Ambrosia elatior); assay: Test A postemergence, ragweed; details: 0 to 100 scale
Procedure, shortened: as §2

[6] = system: barnyardgrass (Echinochloa crus-galli); assay: Test A preemergence, barnyardgrass; details: 0 to 100 scale
Procedure, shortened: as §2

[7] = system: pigweed (Amaranthus retroflexus); assay: Test A preemergence, pigweed; details: 0 to 100 scale
Procedure, shortened: as §2

[8] = system: ducksalad (Heteranthera limosa); assay: Test B flooded paddy test, ducksalad; details: Flood, 250 g ai/ha, applied to paddy water, 2-leaf stage, visual evaluation after 13 to 15 d
Procedure, shortened: as §1

[9] = system: ryegrass, Italian (Lolium multiflorum); assay: Test A preemergence, Italian ryegrass; details: 0 to 100 scale
Procedure, shortened: as §2

[10] = system: galium (catchweed bedstraw, Galium aparine); assay: Test A postemergence, galium; details: 0 to 100 scale
Procedure, shortened: as §2

[11] = system: barnyardgrass (Echinochloa crus-galli); assay: Test A postemergence, barnyardgrass; details: 0 to 100 scale
Procedure, shortened: as §2

[12] = system: sedge, umbrella (small-flower umbrella sedge, Cyperus difformis); assay: Test B flooded paddy test, umbrella sedge; details: Flood, 250 g ai/ha, applied to paddy water, 2-leaf stage, visual evaluation after 13 to 15 d
Procedure, shortened: as §1

[13] = system: foxtail, giant (Setaria faberii); assay: Test A preemergence, giant foxtail; details: 0 to 100 scale
Procedure, shortened: as §2

[14] = system: ragweed (common ragweed, Ambrosia elatior); assay: Test A preemergence, ragweed; details: 0 to 100 scale
Procedure, shortened: as §2

[15] = system: blackgrass (Alopecurus myosuroides); assay: Test A postemergence, blackgrass; details: 0 to 100 scale
Procedure, shortened: as §2

[16] = system: pigweed (Amaranthus retroflexus); assay: Test A postemergence, pigweed; details: 0 to 100 scale
Procedure, shortened: as §2

kochia (Kochia scoparia) [17] = assay: Test A preemergence, kochia; details: 0 to 100 scale
Procedure, shortened: as §2

corn (Zea mays) = assay: Test A postemergence, corn; details: 0 to 100 scale
Procedure, shortened: as §2

[18] = system: barnyardgrass (Echinochloa crus-galli); assay: Test B flooded paddy test, barnyardgrass; details: Flood, 250 g ai/ha, applied to paddy water, 2-leaf stage, visual evaluation after 13 to 15 d
Procedure, shortened: as §1

With CCC(Nc1ncc(C(F)(F)F)c(N)n1)c1cc2ccccc2o1 (racemic) [Compound 28] the “Plant response rating, Rice (0 to 100 scale, 0 is no effect, 100 is complete control)” value (rice (Oryza sativa)) was 20, the “Plant response rating, Kochia” value (kochia (Kochia scoparia) [1]; 125 g ai/ha) was 30 and the “Plant response rating, Kochia” value (kochia (Kochia scoparia) [1]; 500 g ai/ha) was 80. The “Plant response rating, Foxtail, Giant” value ([2]; 125 g ai/ha) was 10, the “Plant response rating, Foxtail, Giant” value ([2]; 500 g ai/ha) was 40 and the “Plant response rating, Wheat” value ([3]; 125 g ai/ha) was 0. For the same molecule, the “Plant response rating, Wheat” value ([3]; 500 g ai/ha) was 10, the “Plant response rating, Ryegrass, Italian” value ([4]; 125 g ai/ha) was 0 and the “Plant response rating, Ryegrass, Italian” value ([4]; 500 g ai/ha) was 0. For the same molecule, the “Plant response rating, Ragweed” value ([5]; 125 g ai/ha) was 20, the “Plant response rating, Ragweed” value ([5]; 500 g ai/ha) was 60 and the “Plant response rating, Barnyardgrass” value ([6]; 125 g ai/ha) was 50. The “Plant response rating, Barnyardgrass” value ([6]; 500 g ai/ha) was 90, the “Plant response rating, Pigweed” value ([7]; 125 g ai/ha) was 90 and the “Plant response rating, Pigweed” value ([7]; 500 g ai/ha) was 100. The “Plant response rating, Ducksalad (0 to 100 scale, 0 is no effect, 100 is complete control)” value [8] was 75, the “Plant response rating, Ryegrass, Italian” value ([9]; 125 g ai/ha) was 20 and the “Plant response rating, Ryegrass, Italian” value ([9]; 500 g ai/ha) was 60. The “Plant response rating, Galium” value ([10]; 125 g ai/ha) was 70, the “Plant response rating, Galium” value ([10]; 500 g ai/ha) was 90 and the “Plant response rating, Barnyardgrass” value ([11]; 125 g ai/ha) was 0. The “Plant response rating, Barnyardgrass” value ([11]; 500 g ai/ha) was 30, the “Plant response rating, Sedge, Umbrella (0 to 100 scale, 0 is no effect, 100 is complete control)” value [12] was 100 and the “Plant response rating, Foxtail, Giant” value ([13]; 125 g ai/ha) was 60. The “Plant response rating, Foxtail, Giant” value ([13]; 500 g ai/ha) was 90, the “Plant response rating, Ragweed” value ([14]; 125 g ai/ha) was 20 and the “Plant response rating, Ragweed” value ([14]; 500 g ai/ha) was 100. The “Plant response rating, Blackgrass” value ([15]; 125 g ai/ha) was 10, the “Plant response rating, Blackgrass” value ([15]; 500 g ai/ha) was 80 and the “Plant response rating, Pigweed” value ([16]; 125 g ai/ha) was 90. The “Plant response rating, Pigweed” value ([16]; 500 g ai/ha) was 100, the “Plant response rating, Kochia” value (kochia (Kochia scoparia) [17]; 125 g ai/ha) was 10 and the “Plant response rating, Kochia” value (kochia (Kochia scoparia) [17]; 500 g ai/ha) was 90. The “Plant response rating, Corn” value (corn (Zea mays); 125 g ai/ha) was 0, the “Plant response rating, Corn” value (corn (Zea mays); 500 g ai/ha) was 80 and the “Plant response rating, Barnyardgrass (0 to 100 scale, 0 is no effect, 100 is complete control)” value [18] was 0.
